Source: patent US20230124720A1, “APPLICATION OF ACRIDINEDIONE COMPOUND IN PREPARATION OF ANTI-DIABETIC DRUGS” (THE FOURTH MILITARY MEDICAL UNIVERSITY, priority 2020, published 2023)

Key:
ZDF rat islet tissue = assay: Western Blot of insulin signaling related molecules in ZDF rat islet tissue; type: in vivo; conditions: compared to TD group, P<0.001, most pronounced at 10 mg/kg
STZ-induced T2DM rats = assay: Postprandial blood glucose in STZ-induced T2DM rats; type: in vivo, rat; conditions: for reduction in blood glucose compared to the TD group: end of administration
Protocol: 150 male SD rats, housed in cages in a clean constant temperature (23±2° C.) and humidity (55±10%) animal house, were manually adjusted on a daily 12 h/12 h diurnal light cycle with free access to water. After 3 days of adaptive feeding, 150 rats were randomly divided into normal and model groups. The normal (Con, n=15) group of rats remained on raw chow and the model group (n=135) of rats were given high fat high sugar chow. All rats were fed twice daily and the amount of feed was adjusted as needed to ensure adequate feed. After 8 weeks of group feeding, the model group rats were given an intraperitoneal injection of 25 mg/kg STZ solution with a 12 h fast prior to injection. After injection, feeding was continued as in the original method, blood was taken from the tail vein at 72 h for blood glucose measurement, and rats with fasting blood glucose levels ≥11.1 mmol/L on different days were screened for successful artificial induction of T2DM and administered in groups for the next experiment. 135 rats with successful modeling were randomly divided into 9 groups: […] (2) 0.01 mg/kg ADD-16 administration group (ADD I, n=15): daily administration of 0.01 mg/kg ADD-16 solution by gavage; (3) 0.1 mg/kg ADD-16 administration group (ADD II, n=15): daily administration of a 0.1 mg/kg ADD-16 solution by gavage; (4) 1 mg/kg ADD-16 administration group (ADD III, n=15): daily administration of a 1 mg/kg ADD-16 solution by gavage; (5) 3 mg/kg ADD-16 administration group (ADD IV, n=15): daily administration of a 3 mg/kg ADD-16 solution by gavage; (6) 10 mg/kg ADD-16 administration group (ADD V, n=15): daily administration of a 10 mg/kg ADD-16 solution by gavage; (7) 50 mg/kg ADD-16 administration group (ADD VI, n=15): daily administration of a 50 mg/kg ADD-16 solution by gavage; […] (9) Sitagliptin control group (ST, n=15): daily administration of a 6 mg/kg sitagliptin solution by gavage. […] Relevant indicators of lipid metabolism were measured after the end of the study.

[1] = Tissue distribution kinetics in SD rats (LC-MS/MS); type: in vivo, rat; conditions: gavage 10 mg/kg
Protocol: 40 healthy male SD rats, weighing 200-220 g, were housed adaptively for three days and fasted for 12 h prior to the experiment. All rats were randomly divided into 5 groups, 8 for each group. Each group of rats was gavaged with the ADD-16 solution (10 mg/kg), anesthetized at 10, 30, 60, 240, 480 min after administration, and sacrificed by exsanguination of the abdominal aorta, respectively. Each group of rats was sacrificed by dissection to collect tissues such as heart, liver, spleen, lung, kidney, brain, and islets. After washing the tissue samples with physiological saline to clean surface blood, the tissue samples were blotted with filter paper to dry surface moisture, weighed, and stored at −80° C. The assay was performed by natural thawing at room temperature and the concentration of ADD-16 in each tissue was determined using the LC-MS/MS method.

[2] = n = 6
MIN6 cells = assay: Glucose-stimulated insulin secretion in MIN6 cells (GSIS); type: cell-based, mouse
Protocol: MIN6 cells were seeded in a 24-well plate at an appropriate concentration, and after continued culture until cell confluence exceeded 80%, administration was carried out in the following groups: normal control group (Con), ADD group (ADD-16 was administered at a concentration of 100 μmol/L, 30 μmol/L, 10 μmol/L, 3 μmol/L, 1 μmol/L, 0.3 μmol/L, respectively), TAK875 group (administered at a concentration of 10 μmol/L, 3 μmol/L, 1 μmol/L, respectively), with 6 replicates per group. Incubation was continued for 24 h after group dosing, media was aspirated and gently rinsed 2 times with a sugar-free KRB buffer. After rinsing, the sugar-free KRB buffer was added and incubated at 37° C. for 10 min. At the end of the incubation, the buffer was aspirated and each well was exhausted as much as possible. Each group was dosed with 16.7 mmol/L glucose in a KRB buffer and incubated at 37° C. for 1 hour. All media in the wells was aspirated after 1 h, centrifuged at 2000 rmp/min for 20 min, and the supernatant was collected and stored at −20° C. The insulin content was measured for each group following the instructions of the mouse insulinase ELISA assay kit.
Insulinase ELISA assay: the supernatant of each set of media was taken and processed according to the procedure of Table 1:
The final mixture was mixed well with shaking and the OD was read on a microplate reader at 450 nm. The insulin content of each group was calculated.

SMILES: CC1(C)CC(=O)C2=C(C1)NC1=C(C(=O)CC(C)(C)C1)C2c1ccc(OCc2ccc(C(=O)O)cc2)c(Br)c1 [ADD-16]
- expression of insulin signaling-related molecules, Western Blot (in words) (ZDF rat islet tissue): upregulate the expression of GPR40, PGC-1α, P-P38, P-EP300, PPARγ, P-AKT, PI3K, IRS1 and GLUT4
- reduction in blood glucose compared to the TD group (STZ-induced T2DM rats; ADD IV group, 3 mg/kg daily by gavage): 55.0%
- reduction in blood glucose compared to the TD group (STZ-induced T2DM rats; ADD V group, 10 mg/kg daily by gavage): 56.8%
- reduction in blood glucose compared to the TD group (STZ-induced T2DM rats; ADD VI group, 50 mg/kg daily by gavage): 56.2%
- hypoglycemic effect (in words) (STZ-induced T2DM rats; T2DM rats, 3, 10, 50 mg/kg): significant hypoglycemic effect
- islet targeting (in words) [1]: well-defined islet targeting
- tissue Cmax order ([1]; AUC 0-8 order the same): liver>islets>lung>kidney>heart>spleen>brain
- blood-brain barrier penetration (in words) ([1]; lowest concentration in brain tissue): does not readily penetrate the blood-brain barrier
- LD50 [2]: 123.2 µmol/L
- insulin secretion compared to the Con group (in words) (MIN6 cells; 100 μmol/L, 24 h): decreased insulin secretion
- glucose-stimulated insulin secretion (in words) (MIN6 cells; 24 h, 16.7 mmol/L glucose, concentration dependent): promote glucose-stimulated insulin secretion
- insulinotropic effect compared with TAK875 (in words) (MIN6 cells; same concentrations): significantly better than TAK875
